{"source": "patent US12458627B2", "about": "“Autotaxin inhibitors and uses thereof” (DF 2024 IP Acquisition, LLC, priority 2015, dated 2025)", "key": {"human autotaxin": {"biological_target": "human autotaxin (Homo sapiens (Human), UniProt Q13822)", "assay": "Human autotaxin assay", "format": "biochemical", "conditions": "concentrated conditioned media from Hep3B cells; LPC substrate, choline release"}, "[1]": {"system": "C57B16/J male mice fed a high fat diet", "assay": "Glucose tolerance in mice fed a high fat diet", "format": "in vivo, mouse", "conditions": "15 mg/kg twice daily for two days prior to sampling and once on the day of sampling", "experimental": "C57B16/J male mice are fed a normal diet until 6-10 weeks of age. […] For determination of blood glucose, mice are administered test compound orally in 0.5% methocel once or twice daily for several days prior to the glucose challenge. On the day of the glucose tolerance test (GTT) mice are fasted for 6-8 hours and a last dose of test compound administered orally 1-3 hours before the intraperitoneal (i.p.) injection of 1 g/kg D-glucose (Sigma). Blood from the tail vein is sampled before the glucose load (baseline glucose) and every 15-30 min over the next 120 min after the glucose challenge to monitor blood glucose concentration. Blood glucose is quantified using a glucose meter (Accu-Chek, Roche Diagnostics or AlphaTRAK, Abbott Animal Health) and plotted vs. time. Total blood glucose area under the curve (AUC) after the i.p. glucose challenge is calculated from the time plot using GraphPad Prism6."}, "ENPP7": {"biological_target": "ENPP7 (Homo sapiens (Human), UniProt Q6UWV6)", "sequence (Q6UWV6 22-458, species assumed)": "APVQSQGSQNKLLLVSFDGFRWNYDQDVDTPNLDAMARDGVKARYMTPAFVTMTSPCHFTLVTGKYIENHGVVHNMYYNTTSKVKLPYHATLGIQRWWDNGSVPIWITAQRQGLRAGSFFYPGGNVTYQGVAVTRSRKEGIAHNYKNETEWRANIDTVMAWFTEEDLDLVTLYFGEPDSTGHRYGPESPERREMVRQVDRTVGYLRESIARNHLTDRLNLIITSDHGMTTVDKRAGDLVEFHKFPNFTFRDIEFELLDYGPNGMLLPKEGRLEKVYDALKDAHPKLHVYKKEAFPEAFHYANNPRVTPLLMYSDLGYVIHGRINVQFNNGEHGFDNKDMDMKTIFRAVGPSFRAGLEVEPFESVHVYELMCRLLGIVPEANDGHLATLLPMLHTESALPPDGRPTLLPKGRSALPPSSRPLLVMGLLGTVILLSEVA", "assay": "In vitro ENPP7 inhibition assay", "format": "biochemical"}, "dog": {"system": "dog", "assay": "Dog liver toxicity study", "format": "in vivo", "experimental": "In some embodiments, liver toxicity can be assessed in suitable in vivo assays. In some embodiments, liver toxicity is assessed by monitoring any increases in the levels of liver markers ALT, AST, AlkP and bilirubin."}, "ENPP6": {"biological_target": "ENPP6 (Homo sapiens (Human), UniProt Q6UWR7)", "sequence (Q6UWR7 23-440, species assumed)": "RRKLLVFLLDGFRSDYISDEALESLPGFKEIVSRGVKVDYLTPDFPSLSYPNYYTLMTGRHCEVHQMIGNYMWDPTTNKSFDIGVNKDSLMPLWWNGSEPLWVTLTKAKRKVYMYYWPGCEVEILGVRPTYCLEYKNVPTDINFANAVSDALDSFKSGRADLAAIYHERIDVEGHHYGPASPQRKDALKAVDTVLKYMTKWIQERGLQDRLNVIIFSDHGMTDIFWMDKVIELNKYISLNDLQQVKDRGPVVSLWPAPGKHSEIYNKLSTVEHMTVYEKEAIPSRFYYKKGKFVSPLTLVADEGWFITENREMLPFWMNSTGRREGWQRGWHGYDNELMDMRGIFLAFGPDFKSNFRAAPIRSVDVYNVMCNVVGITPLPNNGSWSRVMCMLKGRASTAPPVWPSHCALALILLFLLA", "assay": "In vitro ENPP6 inhibition assay", "format": "biochemical"}, "ENPP1": {"biological_target": "ENPP1 (Homo sapiens (Human), UniProt P22413)", "sequence (P22413 whole entry, species assumed)": "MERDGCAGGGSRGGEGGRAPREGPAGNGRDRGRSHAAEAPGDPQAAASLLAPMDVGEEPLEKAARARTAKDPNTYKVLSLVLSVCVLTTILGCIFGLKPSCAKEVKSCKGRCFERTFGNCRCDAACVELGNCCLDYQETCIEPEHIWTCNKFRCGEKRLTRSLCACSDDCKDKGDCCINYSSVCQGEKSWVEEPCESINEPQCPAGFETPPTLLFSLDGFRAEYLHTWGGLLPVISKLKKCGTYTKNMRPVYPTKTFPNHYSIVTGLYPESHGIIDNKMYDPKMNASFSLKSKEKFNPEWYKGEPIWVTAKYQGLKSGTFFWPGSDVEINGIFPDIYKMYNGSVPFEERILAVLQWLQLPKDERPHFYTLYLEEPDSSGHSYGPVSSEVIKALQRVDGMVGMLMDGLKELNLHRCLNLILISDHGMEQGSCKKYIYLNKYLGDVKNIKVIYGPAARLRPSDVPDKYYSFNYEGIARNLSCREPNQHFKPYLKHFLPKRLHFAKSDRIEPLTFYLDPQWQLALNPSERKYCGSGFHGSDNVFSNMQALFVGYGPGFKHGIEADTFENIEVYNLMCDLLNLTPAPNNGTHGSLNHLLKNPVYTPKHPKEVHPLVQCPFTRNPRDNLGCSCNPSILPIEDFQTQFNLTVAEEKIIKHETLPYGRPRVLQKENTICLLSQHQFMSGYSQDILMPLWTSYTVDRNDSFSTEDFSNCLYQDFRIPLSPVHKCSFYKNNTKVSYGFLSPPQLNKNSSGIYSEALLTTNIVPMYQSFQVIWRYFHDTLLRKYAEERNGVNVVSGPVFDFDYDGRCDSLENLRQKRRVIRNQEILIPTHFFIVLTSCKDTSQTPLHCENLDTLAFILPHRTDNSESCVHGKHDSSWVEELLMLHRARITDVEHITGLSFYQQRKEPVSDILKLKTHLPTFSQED", "assay": "In vitro ENPP1 inhibition assay", "format": "biochemical"}, "ENPP3": {"biological_target": "ENPP3 (Homo sapiens (Human), UniProt O14638)", "sequence (O14638 whole entry, species assumed)": "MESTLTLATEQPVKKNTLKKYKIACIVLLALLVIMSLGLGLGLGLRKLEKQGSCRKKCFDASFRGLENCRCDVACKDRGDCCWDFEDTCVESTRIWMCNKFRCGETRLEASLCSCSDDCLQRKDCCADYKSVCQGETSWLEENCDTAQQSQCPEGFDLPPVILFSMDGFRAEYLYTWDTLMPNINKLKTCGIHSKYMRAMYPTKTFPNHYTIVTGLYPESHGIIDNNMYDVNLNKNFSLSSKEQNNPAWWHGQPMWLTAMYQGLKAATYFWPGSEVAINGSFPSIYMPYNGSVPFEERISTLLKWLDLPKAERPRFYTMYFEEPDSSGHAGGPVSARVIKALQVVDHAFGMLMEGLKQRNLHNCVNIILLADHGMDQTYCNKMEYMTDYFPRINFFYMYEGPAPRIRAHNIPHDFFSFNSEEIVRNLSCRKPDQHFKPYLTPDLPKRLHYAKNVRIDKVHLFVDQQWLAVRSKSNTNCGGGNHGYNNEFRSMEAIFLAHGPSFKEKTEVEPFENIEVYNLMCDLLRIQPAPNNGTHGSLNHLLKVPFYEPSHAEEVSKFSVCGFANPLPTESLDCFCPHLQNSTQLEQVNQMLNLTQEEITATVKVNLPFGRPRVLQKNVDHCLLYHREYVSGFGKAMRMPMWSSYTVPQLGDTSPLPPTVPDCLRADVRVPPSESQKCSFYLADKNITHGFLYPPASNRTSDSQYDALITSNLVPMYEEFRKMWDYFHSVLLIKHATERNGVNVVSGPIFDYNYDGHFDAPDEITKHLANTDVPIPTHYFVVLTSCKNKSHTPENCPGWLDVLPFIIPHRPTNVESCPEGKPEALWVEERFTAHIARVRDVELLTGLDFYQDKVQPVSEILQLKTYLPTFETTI", "assay": "In vitro ENPP3 inhibition assay", "format": "biochemical"}, "[2]": {"system": "MDA-MB-435S human melanoma line", "assay": "cells", "conditions": "read-out: IC50 cell migration", "description": "The day before the assay, cells are serum-starved overnight in media containing 0.1-0.2% fatty-acid-free BSA. On the day of the assay, the conditioned media is removed from the cells, centrifuged for clarification and set aside. The cells are then harvested by scraping, counted, and pelleted by centrifugation. […] The assays are performed in duplicate using the Neuroprobe 96-well chemotaxis system with 8 m pore size and fibronectin-coated filters. 152 μL cells are added to 8 μL test autotaxin inhibitor compound and incubated for 15 min at 37° C. […] The filters are incubated at 37° C. for 1-24 hours and non-migrated cells removed from the top of the filter by rinsing with PBS and scraping. The filter is air dried then stained before reading the absorbance at 580 nm."}, "CDAA/HFD fed mice": {"system": "CDAA/HFD fed mice", "assay": "Mouse CDAA/HFD model of liver fibrosis", "format": "in vivo", "experimental": "Mice are fed a choline deficient diet supplemented with 0.1% methionine and 60% kCal fat (CDAA/HFD) for 12-14 weeks. Mice receive 1, 3, 10, or 30 mpk of autotaxin inhibitor test compound or vehicle starting at the beginning of week 6 after feeding (therapeutically). The following liver enzymes are measured weekly: aspartate transaminase, alkaline phosphatase and bilirubin. At the end of the study, mice are sacrificed and the liver harvested and frozen at −80° C. for the biochemical analysis of liver fibrosis or fixed in neutral-buffered formalin for histological assessment of liver fibrosis. For the biochemical assessment of liver fibrosis, liver tissue homogenates are analyzed for collagen concentration using a hydroxyproline assay. For the histological assessment of liver fibrosis, fixed liver tissue is stained with Picrosirius Red (PSR) stain and severity of liver fibrosis scored using light microscopy. After qualitative scoring of liver fibrosis, quantitation of fibrosis was determined using whole slide images captured at 20× magnification and calculating the percentage of the liver section that was PSR-positive using Indica Labs' Halo® area quantification image analysis software."}, "[3]": {"system": "Male Wistar rats, DNBS-induced colitis", "assay": "Rat DNBS-induced acute colitis model", "format": "in vivo", "experimental": "Male Wistar rats weighing 150-160 g are intracolonically administered 0.5 ml of 50 mg/ml DNBS in 30% ethanol on Day 1 or vehicle control. Autotaxin inhibitors are dosed at 5 mpk in 0.5% MC once daily from Day 0 to Day 6. Sulfasalazine is dosed at 300 mpk in 0.5% CMC-Na from Day 1 to Day 7. The rats are monitored for body weight and stool consistency daily. At study termination, colon length, colon weight, ulcer area and Masson's trichrome staining are assessed."}, "[4]": {"system": "Female C57BL/6 mice, DSS-induced colitis", "assay": "Mouse DSS-induced chronic colitis model", "format": "in vivo", "conditions": "compared to vehicle", "experimental": "Autotaxin inhibitors are dosed at 30, 60 or 100 mpk PO once or twice daily from Day 0 to 63. For a positive control, Cyclosporin A (CsA) is dosed at 25 mpk on Days 1-7, 22-28, and 43-49. Mouse body weight, stool consistency, bleeding and overall Disease Activity Index (DAI) is recorded daily. After 64 days, mouse colons are removed and their length and weights recorded. Colonic sections are stained with hematoxylin and eosin stain (H&E stain) and scored based on inflammatory cell infiltration and tissue damage. Colonic sections are also stained with trichrome and scored for fibrosis."}, "[5]": {"conditions": "5 mpk once daily, DNBS acute colitis"}, "[6]": {"conditions": "5 mpk once daily, similar to sulfasalazine"}}, "data": [{"smiles": "O=C1C2Cc3c(n(Cc4ccc(F)cc4)c4ccccc34)CN2C(=O)N1CCN1CCNCC1", "note": "(centres unmarked) [Compound D, 4-(2-(6-(4-fluorobenzyl)-1,3-dioxo-5,6,11a-tetrahydro-1H-imidazo[1′,5′:1,6]pyrido[3,4-b]indol-2(3H, 5H, 6H)-yl)ethyl)piperazin-1-ium chloride]", "values": [{"measurement": "IC50", "setting": "human autotaxin", "result": "< 500", "unit": "nM"}]}, {"smiles": "CCCn1cc(-n2c(Cl)c(Sc3cccc(C(=O)O)c3F)c3ccc(Cl)c(F)c32)cn1", "note": "[Compound B, 3-((2,6-dichloro-7-fluoro-1-(1-propyl-1H-pyrazol-4-yl)-1H-indol-3-yl)thio)-2-fluorobenzoic acid]", "values": [{"measurement": "baseline glucose", "setting": "[1]", "result": "decreased"}, {"measurement": "total blood glucose AUC", "setting": "[1]; i.p. glucose challenge", "result": "decreased"}, {"measurement": "IC50", "setting": "ENPP7", "result": "> 10000", "unit": "nM"}, {"measurement": "liver markers (ALT, AST, AlkP and bilirubin)", "setting": "dog; dog liver toxicity study", "result": "did not exhibit the same effects"}, {"measurement": "increases in liver markers ALT, AST, AlkP and bilirubin", "setting": "dog; dosed at 100 mpk for 5 days", "result": "no increases"}, {"measurement": "IC50", "setting": "ENPP6", "result": "> 10000", "unit": "nM"}, {"measurement": "IC50", "setting": "ENPP1", "result": "> 10000", "unit": "nM"}, {"measurement": "IC50", "setting": "ENPP3", "result": "> 10000", "unit": "nM"}, {"measurement": "IC50", "setting": "[2]", "result": 15, "unit": "nM"}, {"measurement": "decrease in % PSR positive area", "setting": "CDAA/HFD fed mice; 10 mpk, liver, CDAA/HFD mice", "result": "approximately 35%"}, {"measurement": "liver fibrosis", "setting": "CDAA/HFD fed mice; 10 mpk, therapeutic dosing, CDAA/HFD mice", "result": "significantly reduced"}, {"measurement": "hepatic fibrosis (FIG. 4, percent PSR positive area)", "setting": "CDAA/HFD fed mice; dosed therapeutically, mouse CDAA/HFD model", "result": "attenuate"}, {"measurement": "effect on colitis by reducing ulcer area", "setting": "[3]; 5 mpk once daily Day 0 to Day 6, DNBS rats", "result": "positive effect"}, {"measurement": "body weight loss", "setting": "[3]; [5]", "result": "no significant effect"}, {"measurement": "stool consistency", "setting": "[3]; [5]", "result": "no significant effect"}, {"measurement": "colon weight", "setting": "[3]; [6]", "result": "reduced"}, {"measurement": "ulcer area", "setting": "[3]; [6]", "result": "reduced"}, {"measurement": "colon length", "setting": "[4]", "result": "significant increase"}, {"measurement": "colon length, longer than vehicle", "setting": "[4]", "result": "at least 30%"}]}, {"smiles": "CCn1cc(-n2c(Cl)c(Sc3cccc(C(=O)O)c3F)c3ccc(Cl)c(F)c32)cn1", "note": "[Compound E, 3-((2,6-dichloro-1-(1-ethyl-1H-pyrazol-4-yl)-7-fluoro-1H-indol-3-yl)thio)-2-fluorobenzoic acid]", "values": [{"measurement": "IC50", "setting": "human autotaxin", "result": "< 500", "unit": "nM"}]}, {"smiles": "CCn1cc(-n2c(Cl)c(Sc3cccc(C(=O)O)n3)c3ccc(Cl)c(F)c32)cn1", "note": "[Compound G, 6-((2,6-dichloro-1-(1-ethyl-1H-pyrazol-4-yl)-7-fluoro-1H-indol-3-yl)thio)picolinic acid]", "values": [{"measurement": "IC50", "setting": "human autotaxin", "result": "< 500", "unit": "nM"}]}, {"smiles": "CCCn1cc(-n2c(Cl)c(Sc3cccc(CC(=O)O)c3F)c3ccc(Cl)c(F)c32)cn1", "note": "[Compound H, 2-(3-((2,6-dichloro-7-fluoro-1-(1-propyl-1H-pyrazol-4-yl)-1H-indol-3-yl)thio)-2-fluorophenyl)acetic acid]", "values": [{"measurement": "IC50", "setting": "human autotaxin", "result": "< 500", "unit": "nM"}]}, {"smiles": "CCn1cc(-n2c(Cl)c(Sc3cccc(CC(=O)O)c3F)c3ccc(Cl)c(F)c32)cn1", "note": "[Compound I, 2-(3-((2,6-dichloro-1-(1-ethyl-1H-pyrazol-4-yl)-7-fluoro-1H-indol-3-yl)thio)-2-fluorophenyl)acetic acid]", "values": [{"measurement": "IC50", "setting": "human autotaxin", "result": "< 500", "unit": "nM"}]}, {"smiles": "O=C1C2Cc3c(n(Cc4ccc(F)cc4)c4ccccc34)CN2C(=O)N1CCC1CCNCC1", "note": "(centres unmarked) [Compound C, 4-(2-(6-(4-fluorobenzyl)-1,3-dioxo-5,6,11a-tetrahydro-1H-imidazo[1′,5′:1,6]pyrido[3,4-b]indol-2(3H, 5H, 6H)-yl)ethyl)piperidin-1-ium chloride]", "values": [{"measurement": "IC50", "setting": "human autotaxin", "result": "< 500", "unit": "nM"}]}, {"smiles": "CCCn1cc(-n2c(Cl)c(Sc3cccc(C(=O)O)n3)c3ccc(Cl)c(F)c32)cn1", "note": "[Compound F, 6-((2,6-dichloro-7-fluoro-1-(1-propyl-1H-pyrazol-4-yl)-1H-indol-3-yl)thio)picolinic acid]", "values": [{"measurement": "IC50", "setting": "human autotaxin", "result": "< 500", "unit": "nM"}]}]}
